Reference: PMC7784773 (Protein Science : A Publication of the Protein Society, 2020)
“And” between values parts separate entries of the source, which are not always exact repeats. Equal entries are not always repeated.

What was measured:
[1] = biological target: T1, R67 dihydrofolate reductase (R67 DHFR; 4F, 5F, 6F and 7F R67 DHFR) (Escherichia coli, UniProt P00383); assay: […] NMR titration, peak intensity, […] fit; assay type: binding; conditions: Kd (μM) ^a / NADP^+
T1 sequence (P00383 1-78): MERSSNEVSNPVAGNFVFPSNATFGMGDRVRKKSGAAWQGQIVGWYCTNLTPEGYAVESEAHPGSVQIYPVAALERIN

[2] = biological target: T1, R67 dihydrofolate reductase (R67 DHFR; 4F, 5F, 6F and 7F R67 DHFR); assay: […] NMR titration, chemical shift, […] fit; assay type: binding

Kd [1]: 360 µM and 320 µM and 380 µM | Kd [2]: 220 ± 20 µM
Structure (SMILES): NC(=O)c1ccc[n+]([C@@H]2O[C@H](COP(=O)(O)OP(=O)(O)OC[C@H]3O[C@@H](n4cnc5c(N)ncnc54)[C@H](OP(=O)(O)O)[C@@H]3O)[C@@H](O)[C@H]2O)c1 [NADP^+]
